Laboratory results published in ChEMBL document CHEMBL5604062, “ASAP - ZIKV NS2B-NS3 protease fluorescence dose response” (2024).
“And” between values parts separate entries of the source, which are not always exact repeats. Equal values may be shown once.

Molecular target: Nonstructural protein 3 (Zika virus, UniProt A0A024AXB9)
Assay: Functional biochemical assay to identify treatments for viral infectious disease that targets Zika NS2B-NS3 protease. Utilizing a direct enzyme activity measurement method, reading the fluorescence intensity is used to characterize the relative potency of inhibitors as IC50.
Design: species or system PRVABC59

Chain of Nonstructural protein 3 (A0A024AXB9 whole entry): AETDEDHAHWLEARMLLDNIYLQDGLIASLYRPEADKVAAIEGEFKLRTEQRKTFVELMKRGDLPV

SMILES | IC50
c1ccc2c(CN[C@H]3CCc4ncsc4C3)n[nH]c2c1 | > 99.5 µM
CNC(=O)c1cc(Cl)c(OC)cc1NS(=O)(=O)c1ccc(Oc2ccccc2Cl)cc1 | 53.4 µM
Cc1cc(CN)cc(NS(=O)(=O)c2ccc(Oc3ccccc3Cl)cc2)c1 | > 99.5 µM
COc1cc(-c2cc(NC(=O)c3cc(F)cc4[nH]ncc34)cc3c2CNC3)ccn1 | 0.033 µM and 0.03 µM and 0.023 µM
O=C(Nc1ccc2c(c1)CNC2)c1ccc2c(Br)csc2c1 | 2.19 µM
O=S(=O)(Nc1ccc(Cl)cc1)c1ccc(Oc2ccccc2Cl)cc1 | > 99.5 µM
Cc1cc(F)cc(N(C)C(=O)c2ccc(C3(CN)CC3)cc2)c1 | > 99.5 µM
Cc1c(C(=O)Nc2nccc3c2CNCC3)cc(C2CC2)n1C | > 99.5 µM
O=C(O)c1c(Br)sc2nnsc12 | 40.2 µM
CC1(C)OB(c2ccc(Cl)cc2CNC2CCCCC2)OC1(C)C | > 99.5 µM
O=C(Nc1cc(Cl)cc(C(=O)Nc2ccc(N3CCNCC3)c(F)c2)c1)OCc1ccccc1 | 15.7 µM
O=C(Nc1ccc2c(c1)CN[C@H]2C[C@H](O)CO)c1cc(Cl)cc2[nH]ncc12 | 0.198 µM
NCCNC(=O)c1cc(Cl)cc(NC(=O)OCc2ccccc2)c1 | > 99.5 µM
C[C@@H](Oc1ccc(S(=O)(=O)Nc2ccc(Cl)cc2C(=O)O)cc1)c1ccccc1F | 25.1 µM
Cc1cnccc1-c1cc(NC(=O)c2cc(F)cc3[nH]ncc23)cc2c1CNC2 | 0.116 µM
Cc1c(C(=O)Nc2cccc(-c3nnn[nH]3)c2)n[nH]c1-c1ccc(Cl)cc1 | > 99.5 µM
O=C(O)c1cc(Cl)ccc1NS(=O)(=O)c1ccc(-c2ccccc2Cl)cc1 | 17.8 µM
O=C(Nc1cc(Cl)cc(C(=O)Nc2ccnc(OC3CNC3)c2)c1)OCc1ccccc1 | 66.1 µM
Cc1ccc([C@H]2[C@H](C)CN2C(=O)c2ccc(C(F)(F)CN)cc2)cc1 | > 99.5 µM
N#Cc1cccc(C[C@H](O)c2cc(Cl)cc(NC(=O)OCc3ccccc3)c2)c1 | > 99.5 µM
NCc1ccc(Oc2ccc(S(=O)(=O)Nc3ccc(Cl)cc3C(=O)NCC(F)(F)F)cc2)cc1 | > 99.5 µM
COc1cc(C(=O)O)c(S(=O)(=O)Nc2ccc(Oc3ccccc3Cl)cc2)cc1F | 91.6 µM
O=C(O)c1ccc(F)c(F)c1NS(=O)(=O)c1ccc(Oc2ccccc2Cl)cc1 | > 99.5 µM
CN(c1ccc2c(c1)CNC2)[C@H](C(=O)NCC(F)F)c1cc(Cl)cc(C2CC2)c1 | 0.032 µM and 0.017 µM
CCNC(=O)Nc1cc(Cl)cc(C(=O)Nc2cccc(CN)c2)c1 | 0.659 µM
Cc1ccc(NC(=O)c2cc(Cl)cc(NC(=O)OCc3ccccc3)c2)cc1CN | 10.9 µM

SMILES | IC50
COc1c(C)cc(C(=O)Nc2cccc(CN)c2)cc1NC(=O)OCc1ccccc1 | > 99.5 µM
Cc1cnnc(C(=O)Nc2cccc(CN)c2)c1 | > 99.5 µM
CCc1ccc([C@@H](CC(=O)Nc2cccc(CN)c2)NC(=O)OCc2ccccc2)cc1Br | 12.1 µM
CN(C)CCc1ccc(NC(=O)c2cc(Cl)cc(NC(=O)OCc3ccccc3)c2)cc1 | 44.5 µM
CC(C)(C)OC(=O)N1Cc2cc(NC(=O)c3cc(Cl)cc4[nH]ncc34)cc(Br)c2C1 | 16.4 µM
O=C(Nc1ccc2c(c1)CNC2)c1nc(C(F)(F)F)cs1 | > 25 µM
CN1Cc2cc(NC(=O)c3cc(Cl)cc4[nH]ncc34)ccc2C1(C)C | 7.29 µM
CN(C(=O)c1cc(Cl)cc2[nH]ncc12)c1ccc2c(c1)CNC2 | 80 µM
O=C(Nc1cc(Cl)cc(C(=O)Nc2ccc(S(=O)(=O)N3CCNCC3)cc2)c1)OCc1ccccc1 | > 99.5 µM
Cc1c(C(=O)Nc2cc(-c3cnn(C)c3)ccn2)cc(C2CC2)n1C | > 99.5 µM
O=C(Nc1cc(Cl)cc(C(=O)Nc2ccc([C@H]3CNCCO3)cc2)c1)OCc1ccccc1 | > 99.5 µM
NCc1cccc(NC(=O)[C@@H](NC(=O)OCc2ccccc2)c2ccc(C3=CCCOC3)cc2)c1 | 68.7 µM
O=C(Nc1ccc2c(c1)CNC2)c1cc(Cl)cc2[nH]c(-c3ncnn3C3CC3)nc12 | 0.312 µM
NCc1cccc(NC(=O)[C@H](NC(=O)OCc2ccccc2)C2CCN(C(=O)[C@H]3C[C@H](O)C3)CC2)c1 | > 99.5 µM
NCc1cccc(NC(=O)c2cc(Cl)cc3c2cnn3CC2CC2)c1 | 3.05 µM
O=C(Nc1ccc2c(c1)CNC2)c1cc(F)cc2[nH]c(-c3cccc(F)c3)nc12 | 36 nM (2×) and 22 nM
O=C(O)c1cc2cccc(Cc3c[nH]c4ccc(Cl)cc34)c2[nH]1 | > 99.5 µM
CC(C)[C@H](N)P(=O)(Oc1ccc(F)cc1)Oc1ccc(F)cc1 | > 99.5 µM
O=C(Nc1ccc2c(c1)B(O)OC2)c1cccc(OCc2c(Cl)cccc2Cl)c1 | > 99.5 µM
Nc1nc2ccc(NC(=O)c3cc(Cl)cc(NC(=O)OCc4ccccc4)c3)cc2[nH]1 | > 99.5 µM
NCc1cc(NC(=O)c2cc(Cl)cc(NC(=O)OCc3ccccc3)c2)cc([C@@H]2C[C@H]2C(=O)O)c1 | 5.66 µM
O=C(O)c1cccc(CCc2cc(Cl)cc3[nH]ncc23)c1 | > 99.5 µM
CCn1c(=O)c(N2C[C@@H]3C[C@]3(CO)C2)nc2ccccc21 | > 99.5 µM
C[C@H](C(=O)O)N(C)C(=O)c1cc(Cl)cc(NC(=O)OCc2ccccc2)c1 | > 99.5 µM
NCc1ccc([C@H]2C[C@@H]2c2cc(Cl)cc(NC(=O)OCc3ccccc3)c2)cc1 | 5.12 µM
NC[C@H]1CC[C@@H](NC(=O)c2cc(Cl)cc3[nH]ncc23)CC1 | 10.7 µM

SMILES | IC50
COC(=O)Cc1ccccc1-c1ccc(S(=O)(=O)Nc2ccc(Cl)cc2C(=O)O)cc1 | > 99.5 µM
O=c1[nH]c(CSc2ccccc2Cl)nc2ccsc12 | > 99.5 µM
CCn1c(C)cc(C(=O)Nc2cc(CCCN)ccn2)c1C | > 25 µM
COc1ccc(S(=O)(=O)Nc2ccc(C(=O)Nc3nc4ccccc4s3)cc2)cc1 | > 99.5 µM
CN1CCC[C@H]1COc1ccc([C@@H](NC(=O)OCc2ccccc2)C(=O)Nc2cccc(CN)c2)cc1 | > 99.5 µM
O=C(Nc1ccc2c(c1)CNC2)c1cc(Cl)cc2[nH]c(-c3cc(C4CC4)[nH]n3)nc12 | 0.08 µM and 0.029 µM and 0.061 µM
CSCCCNC(=O)[C@H](Nc1ccc2c(c1)CNC2)c1cc(Cl)cc(C2CC2)c1 | 0.126 µM
CS(=O)(=O)Nc1cccc(C(=O)Nc2ccc3c(c2)CNC3)c1 | 12.8 µM
CCNC(=O)Nc1cc(Cl)cc(C(=O)Nc2cccc(-n3nn[nH]c3=O)c2)c1 | > 99.5 µM
CCN1CCN(c2ccc(NC(=O)C3CCN(c4ccc(C=O)cc4)CC3)cc2)CC1 | 81.6 µM
COCC=Cc1cccc([C@@H](NC(=O)OCc2ccccc2)C(=O)Nc2cccc(CN)c2)c1 | 26.8 µM
O=C(Nc1ccc2c(c1)CNC2)c1ccc2[nH]ncc2c1 | 2.01 µM
COc1cc(COc2cncc3ccccc23)nc(N2CCNCC2)n1 | > 99.5 µM
NC1CN(c2ccc(NS(=O)(=O)c3ccc(Oc4ccccc4Cl)cc3)cn2)C1 | > 99.5 µM
NCc1ccc(C#CCO)c(NC(=O)c2cc(Cl)cc(NC(=O)OCc3ccccc3)c2)c1 | 30.6 µM
NCc1ccc(-c2csc3cc(C(=O)Nc4ccc5c(c4)CNC5)ccc23)cc1 | 0.888 µM and 0.889 µM
O=C(Nc1ccc2c(c1)CNC2)c1cccc2c1[C@]1(CCNC1)C(=O)N2 | 0.113 µM
Cc1cc(C(=O)Nc2cccc(CN)c2)c2c(n1)CCCC2 | > 99.5 µM
O=C(Nc1ccc2c(c1)CNC2)[C@H]1CCc2ccccc21 | > 99.5 µM
NCc1cccc(NC(=O)[C@H]2CCCN(C(=O)OCc3ccccc3)C2)c1 | > 99.5 µM
O=C(Nc1cc(Cl)cc(C(=O)Nc2nc3c(s2)CCNC3)c1)OCc1ccccc1 | 53.5 µM
O=C(Nc1ccc2c(c1)CNC2)c1cc(Cl)cc2nccnc12 | 3.34 µM
CNC(=O)[C@H](Nc1cccc(CN)c1)c1cc(Cl)cc(NC(=O)OCc2ccccc2)c1 | 0.612 µM
CC(C)N1CCC([C@H](NC(=O)OCc2ccccc2)C(=O)Nc2cccc(CN)c2)CC1 | > 99.5 µM
CCNC(=O)c1ccc2c(c1)nc(N1CC[C@H](CO)C1)c(=O)n2CC | > 99.5 µM
COc1ncc(Cl)cc1C(=O)Nc1ccc2c(c1)CNC2 | 2.58 µM

SMILES | IC50
Cc1ccc(C(C)C)c(C(=O)Nc2ccc3c(c2)CNC3)c1 | 3.72 µM
NC[C@H]1CC[C@H](NC(=O)c2cc(Cl)cc3[nH]ncc23)CC1 | 20.1 µM
NCc1cccc(NC(=O)[C@H](NC(=O)OCc2ccccc2)c2cccc(-c3ccc(S(N)(=O)=O)cc3)c2)c1 | 84.1 µM
Cc1nc(COc2ccc([C@@H](NC(=O)OCc3ccccc3)C(=O)Nc3cccc(CN)c3)cc2)cs1 | > 99.5 µM
Cc1nnsc1Cn1ccc(Br)n1 | > 99.5 µM
NCc1cccc(NC(=O)[C@H](NC(=O)OCc2ccccc2)c2cccc(-c3cncc(F)c3)c2)c1 | > 99.5 µM
NCc1cccc(NC(=O)[C@@H]2c3ccsc3CCN2C(=O)OCc2ccccc2)c1 | > 99.5 µM
Cc1c(C(=O)Nc2cccc(-c3ccc(O)nc3)c2)cc(C2CC2)n1C | > 25 µM
Cc1nnnn1Cc1ncc(Br)s1 | > 99.5 µM
Cn1cc(C(F)(F)F)nc1C(=O)Nc1cc(-c2cccnc2)ccn1 | > 25 µM
Clc1cc(CCc2cccc(-c3nn[nH]n3)c2)c2cn[nH]c2c1 | > 99.5 µM
NCc1cccc(NC(=O)[C@@H]2CCC[C@H](NC(=O)OCc3ccccc3)C2)c1 | > 99.5 µM
c1ccc2c(CN3CCCCC3)c[nH]c2c1 | > 99.5 µM
O=C1CCc2c(cc(Cl)cc2-c2ccc3[nH]c(C(=O)O)cc3c2)N1 | > 99.5 µM
CCc1nc2ccc(Cl)cc2n1Cc1ccc2c(c1)CNC2 | > 99.5 µM
Cc1ccc(CNC(=O)c2cc(Cl)ccc2NS(=O)(=O)c2ccc(Oc3ccccc3Cl)cc2)s1 | > 99.5 µM
NCc1cccc(NC(=O)[C@@H](NC(=O)OCc2ccccc2)c2ccc(-c3ccc4cn[nH]c4c3)cc2)c1 | 6.07 µM and 5.74 µM
O=C(Nc1ccc2c(c1)CNC2)c1ccncc1 | > 99.5 µM
Cc1csc(COc2cccc([C@H](NC(=O)OCc3ccccc3)C(=O)Nc3cccc(CN)c3)c2)n1 | 29.8 µM
CNC(=O)[C@H](Nc1ccc2c(c1)CNC2)c1cc(Cl)cc2c1OCC2 | 0.256 µM
O=C(O)c1cc(Cl)ccc1S(=O)(=O)N[C@H]1CCN(Cc2ccccc2)C(=O)C1 | > 99.5 µM
OCC#C[C@H](Nc1ccc2c(c1)CNC2)c1cc(Cl)cc2[nH]ncc12 | 1.1 µM
NCC12CC(NC(=O)c3cc(Cl)cc(NC(=O)OCc4ccccc4)c3)(CCO1)C2 | > 99.5 µM
O=C(O)c1cc(NS(=O)(=O)c2ccc(Oc3ccccc3Cl)cc2)ccc1Cl | > 99.5 µM
c1coc(CSCc2nc(-c3nc[nH]n3)no2)c1 | > 99.5 µM
CCc1n[nH]cc1-c1cccc([C@H](NC(=O)OCc2ccccc2)C(=O)Nc2cccc(CN)c2)c1 | > 99.5 µM
